Results as given in patent publication US7579348B2, “Derivatives of 8-substituted xanthines” (PGxHealth, LLC, priority 2005, dated 2009).

Biological target: T1, rat A2B receptors (rA2B) (Rattus norvegicus, UniProt P29276)
T1 construct: expressed in transfected cells; membranes)
T1 sequence (P29276 1-332): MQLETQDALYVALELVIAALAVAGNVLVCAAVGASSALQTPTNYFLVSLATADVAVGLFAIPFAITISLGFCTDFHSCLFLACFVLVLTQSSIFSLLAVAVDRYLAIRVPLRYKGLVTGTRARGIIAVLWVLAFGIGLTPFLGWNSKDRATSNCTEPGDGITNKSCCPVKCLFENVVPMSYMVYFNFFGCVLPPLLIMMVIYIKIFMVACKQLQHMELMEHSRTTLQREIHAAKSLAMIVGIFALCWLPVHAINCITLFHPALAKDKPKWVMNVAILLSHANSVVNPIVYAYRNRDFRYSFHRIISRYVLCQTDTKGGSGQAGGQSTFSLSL
Test: Radioligand binding, displacement of specific [125I]ABOPX binding
Conditions: displacement of specific [125I]ABOPX binding at rat A2B receptors expressed in HEK-293 cells; read-out: RatA2B Ki
Source text: The rat A2B receptor cDNA was subcloned into the expression plasmid pDoubleTrouble using techniques described in Robeva, A. et al., Biochem. Pharmacol., 51, 545-555 (1996). The plasmid was amplified in competent JM109 cells and plasmid DNA isolated using Wizard Megaprep columns (Promega Corporation, Madison, Wis.). A2B adenosine receptors were introduced into HEK-293 cells by means of Lipofectin as described in Felgner, P. L. et al., Proc. Natl. Acad. Sci. USA, 84, 7413-7417 (1987).
Transfected HEK cells were grown under 5% CO2/[…] humidified atmosphere at a temperature of 37° C. Colonies were selected by growth of cells in 0.6 mg/mL G418. Transfected cells were maintained in DMEM supplemented with Hams F 12 nutrient mixture (1/1), 10% newborn calf serum, 2 mM glutamine and containing 50 IU/mL penicillin, […], and 0.2 mg/mL Geneticin (G418, Boehringer Mannheim). Cells were cultured in 10 cm diameter round plates and subcultured when grown confluent (approximately after 72 hours).
At A2B receptors: Confluent monolayers of HEK-A2B cells were washed with PBS followed by ice cold Buffer A (10 mM HEPES, 10 mM EDTA, pH 7.4) with protease inhibitors (10 μg/mL benzamidine, 100 μM phenylmethanesulfonyl fluoride, and 2 μg/mL of each aprotinin, pepstatin and leupeptin). The cells were homogenized in a Polytron (Brinkmann) for 20s, centrifuged at 30,000 ×g, and the pellets washed twice with buffer HE (10 mM HEPES, 1 mM EDTA, pH 7.4 with protease inhibitors). The final pellet was resuspended in buffer HE, supplemented with 10% sucrose and frozen in aliquots at −80° C. For binding assays membranes were thawed and diluted 5-10 fold with HE to a final protein concentration of approximately 1 mg/mL. To determine protein concentrations, membranes, and bovine serum albumin standards were dissolved in 0.2% NaOH/0.01% SDS and protein determined using fluorescamine fluorescence. Stowell, C. P. et al., Anal. Biochem., 85, 572-580 (1978).
Saturation binding assays for rat A2B adenosine receptors were performed with [^3H]ZM214,385 (17 Ci/mmol, Tocris Cookson, Bristol UK) (Ji, X. et al., Drug Design Discov., 16, 216-226 (1999)) or ^125I-ABOPX (2200 Ci/mmol). To prepare 125I-ABOPX, 10 μL of 1 mM ABOPX in methanol/1 M NaOH (20:1) was added to 50 μL of 100 mM phosphate buffer, pH 7.3. One or 2 mCi of Na^125I was added, followed by 10 μL of 1 mg/mL chloramine-T in water. After incubation, 20 minutes at room temperature, 50 μL of 10 mg/mL Na-metabisulfite in water was added to quench the reaction. The reaction mixture was applied to a C18 HPLC column, eluting with a mixture of methanol and 5 mM phosphate, pH 6.0. After 5 min at 35% methanol, the methanol concentration was ramped to 100% over 15 min. Unreacted ABOPX eluted in 11-12 minutes; ^125I-ABOPX eluted at 18-19 min in a yield of 50-60% with respect to the initial ^125I.
In equilibrium binding assays the ratio of ^127I/^125I-ABOPX was 10-20/1. Radioligand binding experiments were performed in triplicate with 20-25 μg membrane protein in a total volume of 0.1 mL HE buffer supplemented with 1 U/mL adenosine deaminase and 5 mM MgCl2. The incubation time was 3 h at 21° C. Nonspecific binding was measured in the presence of 100 μM NECA. Competition experiments were carried out using 0.6 nM ^125I-ABOPX. Membranes were filtered on Whatman GF/C filters using a Brandel cell harvester (Gaithersburg, Md.) and washed 3 times over 15-20 seconds with ice cold buffer (10 mM Tris, 1 mM MgCl2, pH 7.4). Bmax and KD values were calculated by Marquardt's nonlinear least squares interpolation for single a site binding models. Marquardt, D. M., J. Soc. Indust. Appl. Math., 11, 431-441.21 (1963). Ki values for different compounds were derived from IC50 values as described. Linden, J., J. Cycl. Nucl. Res., 8, 163-172 (1982). Data from replicate experiments are tabulated as means ±SEM. […]

| Structure (SMILES) | Ki [µM] |
| --- | --- |
| CCn1c(=O)c2[nH]c(-c3ccc4nnc(C)n4c3)nc2n(CC)c1=O [Compound 4, 1,3-Diethyl-8-(3-methyl-[1,2,4]triazolo[4,3,a]pyridin-6-yl)-1H-purine-2,6(3H,7H)-dione] | 0.1 to 0.5 |
| CCCn1c(=O)c2[nH]c(-c3ccc(-n4nc(C)cc4-c4ccccc4)nc3)nc2n(CCC)c1=O [Compound 5, 8-(6-(3-methyl-5-phenyl-1H-pyrazol-1-yl)pyridin-3-yl)-1,3-Dipropyl-1H-purine-2,6(3H,7H)-dione] | 0.1 to 0.5 |
| CCn1c(=O)c2[nH]c(-c3ccc(-n4nc(C)cc4-c4ccccc4)nc3)nc2n(CC)c1=O [Compound 2, 1,3-diethyl-8-(6-(3-methyl-5-phenyl-1H-pyrazol-1-yl)pyridin-3-yl)-1H-purine-2,6(3H,7H)-dione] | 0.5 to 5 |
| CCCn1c(=O)c2[nH]c(-c3ccc(NN)nc3)nc2n(CCC)c1=O [Compound 1, 1,3-Dipropyl-8-[6-hydrazino-3-pyridyl]xanthine] | 0.1 to 0.5 |
| CCCn1c(=O)c2[nH]c(-c3ccc4nncn4c3)nc2n(CCC)c1=O [Compound 14, 1,3-Dipropyl-8-([1,2,4]triazolo[4,3,a]pyridin-6-yl)-1H-purine-2,6(3H, 7H)-dione] | 0.1 to 0.5 |
| CCCn1c(=O)c2[nH]c(-c3ccc(-n4nc(C(=O)OCC)cc4C)nc3)nc2n(CCC)c1=O [Compound 13] | 0.1 to 0.5 |
| CCCn1c(=O)c2[nH]c(-c3ccc(-n4nc(C(F)(F)F)cc4-c4cccs4)nc3)nc2n(CCC)c1=O [Compound 8, 8-(6-(3-(trifluoromethyl)-5-(thiophen-2-yl)-1H-pyrazol-1-yl)pyridin-3-yl)-1,3-Dipropyl-1H-purine-2,6(3H, 7H)-dione] | 0.1 to 0.5 |
| CCn1c(=O)c2[nH]c(-c3ccc4nnc(C(F)(F)F)n4c3)nc2n(CC)c1=O [Compound 3, 1,3-Diethyl-8-(3-(trifluoromethyl)-[1,2,4]triazolo[4,3,a]pyridin-6-yl)-1H-purine-2,6(3H,7H)-dione] | 0.1 to 0.5 |
| CCCn1c(=O)c2[nH]c(-c3ccc(-n4nc(-c5ccco5)cc4N)nc3)nc2n(CCC)c1=O [Compound 16, 8-(6-(5-Amino-3-(furan-2-yl)-1H-pyrazol-1-yl)pyridin-3-yl)-1,3-dipropyl-1H-purine-2,6(3H, 7H)-dione] | < 0.1 |
| CCCn1c(=O)c2[nH]c(-c3ccc(-n4nc(-c5ccccc5)cc4N)nc3)nc2n(CCC)c1=O [Compound 15, 8-(6-(5-Amino-3-phenyl-1H-pyrazol-1-yl)pyridin-3-yl)-1,3-dipropyl-1H-purine-2,6(3H, 7H)-dione] | < 0.1 |
| CCCn1c(=O)c2[nH]c(-c3ccc(-n4nc(C)cc4C)nc3)nc2n(CCC)c1=O [Compound 10] | 0.1 to 0.5 |
| CCCn1c(=O)c2[nH]c(-c3ccc(-n4nc(C(F)(F)F)cc4-c4ccco4)nc3)nc2n(CCC)c1=O [Compound 9, 8-(6-(3-(trifluoromethyl)-5-(furan-2-yl)-1H-pyrazol-1-yl)pyridin-3-yl)-1,3-Dipropyl-1H-purine-2,6(3H, 7H)-dione] | < 0.1 |
